Holding throughout (assay): relative viability (nuclei count vs DMSO), 5 days (fraction); higher = more cells survive
Compound in one experiment: C1COCCN1CC2=CC(=O)C(=CO2)OCCCCCSC3=C4C=CC(=CC4=NC=C3)C(F)(F)F [EHT 1864]
Put shortly:
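Lung cancer cell lines received five library-drug doses (not always all listed) spaced by √10, pinned on vehicle-anchored 1536-well plates after an overnight stay at 37 °C. Five days later, with no medium change, nuclei were Hoechst-stained, imaged at 4× and counted with MetaXpress. Viability is treated-well nuclei relative to vehicle-well nuclei, as a median across plates. Passing plates had control CV below 25% and at least one doubling.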

Compound in the experiment “EHT 1864 + Navitoclax”: C1COCCN1CC2=CC(=O)C(=CO2)OCCCCCSC3=C4C=CC(=CC4=NC=C3)C(F)(F)F [EHT 1864] + CC1(C)CCC(c2ccc(Cl)cc2)=C(CN2CCN(c3ccc(C(=O)NS(=O)(=O)c4ccc(N[C@H](CCN5CCOCC5)CSc5ccccc5)c(S(=O)(=O)C(F)(F)F)c4)cc3)CC2)C1 [Navitoclax] (partner 0.5 µM)
In short, it runs like this: (§1)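 Medians of duplicate plates are given as relative viability. That measure is the nuclei count in treated wells divided by the count in vehicle wells. Counts were taken on 4× images of lung cancer cell lines in 1536-well plates, 5 days after pin-tool dosing the day after seeding with one drug alone or a fixed anchor-drug dose plus five library-drug doses (not always all listed) in √10 steps.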

Compound in the experiment “EHT 1864 + Tozasertib”: C1COCCN1CC2=CC(=O)C(=CO2)OCCCCCSC3=C4C=CC(=CC4=NC=C3)C(F)(F)F [EHT 1864] + Cc1cc(Nc2cc(N3CCN(C)CC3)nc(Sc3ccc(NC(=O)C4CC4)cc3)n2)n[nH]1 [Tozasertib] (partner 0.1 µM)
In short, it runs like this:
as §1

Compound in the experiment “EHT 1864 + Phenformin”: C1COCCN1CC2=CC(=O)C(=CO2)OCCCCCSC3=C4C=CC(=CC4=NC=C3)C(F)(F)F [EHT 1864] + N=C(N)NC(=N)NCCc1ccccc1 [Phenformin] (partner 250 µM)
In short, it runs like this: as §1

Data on four cell lines can be found in the supplement of paper PMC10307832.

For NCI-H2087, the relative viability was determined as 1.12 in the experiment with EHT 1864 (0.04 µM); 0.956 with EHT 1864 (0.4 µM); 0.832 in the experiment with EHT 1864 (1.265 µM); 0.942 with EHT 1864 (4 µM); 0.86 with EHT 1864 + Navitoclax (first compound 0.04 µM); 0.894 with EHT 1864 + Navitoclax (first compound 0.1265 µM). The relative viability with EHT 1864 + Navitoclax (first compound 0.4 µM) was determined as 0.865; in the experiment with EHT 1864 + Navitoclax (first compound 1.265 µM) it was 0.829; with EHT 1864 + Navitoclax (first compound 4 µM), 0.743; with EHT 1864 + Tozasertib (first compound 0.04 µM), 0.373; in the experiment with EHT 1864 + Tozasertib (first compound 0.4 µM), 0.291; with EHT 1864 + Tozasertib (first compound 1.265 µM) it was 0.241. For the same cell line, the relative viability in the experiment with EHT 1864 + Tozasertib (first compound 4 µM) is 0.202; with EHT 1864 + Phenformin (first compound 0.04 µM) it was 0.453; in the experiment with EHT 1864 + Phenformin (first compound 0.4 µM), 0.462; with EHT 1864 + Phenformin (first compound 1.265 µM), 0.434; in the experiment with EHT 1864 + Phenformin (first compound 4 µM), 0.518.

Regarding NCI-H2126, the relative viability came out at 0.983 with EHT 1864 (0.04 µM); 0.914 in the experiment with EHT 1864 (0.1265 µM); 0.986 with EHT 1864 (0.4 µM); 0.985 with EHT 1864 (1.265 µM); 0.999 with EHT 1864 (4 µM); 0.92 with EHT 1864 + Navitoclax (first compound 0.04 µM). Besides, the relative viability was 0.76 in the experiment with EHT 1864 + Navitoclax (first compound 0.1265 µM); 0.823 with EHT 1864 + Navitoclax (first compound 0.4 µM); 0.853 with EHT 1864 + Navitoclax (first compound 1.265 µM); 0.814 with EHT 1864 + Navitoclax (first compound 4 µM); 0.839 with EHT 1864 + Tozasertib (first compound 0.04 µM); 0.689 in the experiment with EHT 1864 + Tozasertib (first compound 0.1265 µM). Moreover, the relative viability was found to be 0.819 with EHT 1864 + Tozasertib (first compound 0.4 µM); 0.8 in the experiment with EHT 1864 + Tozasertib (first compound 1.265 µM); 0.81 with EHT 1864 + Tozasertib (first compound 4 µM); 0.557 in the experiment with EHT 1864 + Phenformin (first compound 0.04 µM); 0.515 with EHT 1864 + Phenformin (first compound 0.1265 µM); 0.571 in the experiment with EHT 1864 + Phenformin (first compound 0.4 µM). The relative viability with EHT 1864 + Phenformin (first compound 1.265 µM) amounted to 0.543; with EHT 1864 + Phenformin (first compound 4 µM), 0.567.

For NCI-H2170, the relative viability came out at 0.904 with EHT 1864 (0.04 µM); 0.889 with EHT 1864 (0.1265 µM); 0.996 with EHT 1864 (0.4 µM); 1.06 in the experiment with EHT 1864 (1.265 µM); 1.01 in the experiment with EHT 1864 (4 µM); 0.674 with EHT 1864 + Navitoclax (first compound 0.04 µM). In addition, the relative viability in the experiment with EHT 1864 + Navitoclax (first compound 0.1265 µM) worked out at 0.511; with EHT 1864 + Navitoclax (first compound 0.4 µM) it was 0.646; with EHT 1864 + Navitoclax (first compound 1.265 µM), 0.573; in the experiment with EHT 1864 + Navitoclax (first compound 4 µM), 0.56; with EHT 1864 + Tozasertib (first compound 0.04 µM), 0.7; with EHT 1864 + Tozasertib (first compound 0.1265 µM) it was 0.52. Further, the relative viability with EHT 1864 + Tozasertib (first compound 0.4 µM) was determined as 0.775; with EHT 1864 + Tozasertib (first compound 1.265 µM), 0.692; with EHT 1864 + Tozasertib (first compound 4 µM), 0.658; with EHT 1864 + Phenformin (first compound 0.04 µM), 0.442; in the experiment with EHT 1864 + Phenformin (first compound 0.1265 µM) it was 0.349; with EHT 1864 + Phenformin (first compound 0.4 µM), 0.392. Moreover, the values for the relative viability with EHT 1864 + Phenformin (first compound 1.265 µM) and with EHT 1864 + Phenformin (first compound 4 µM) were 0.368 and 0.37, respectively.

For the cell line NCI-H2228, the relative viability with EHT 1864 (0.04 µM) stood at 0.974; in the experiment with EHT 1864 (0.1265 µM) it was 0.876; with EHT 1864 (0.4 µM), 0.934; with EHT 1864 (1.265 µM), 0.776; with EHT 1864 (4 µM), 1; in the experiment with EHT 1864 + Navitoclax (first compound 0.04 µM), 1.08. For the same cell line, the relative viability came to 0.847 with EHT 1864 + Navitoclax (first compound 0.1265 µM); 0.755 with EHT 1864 + Navitoclax (first compound 0.4 µM); 0.836 in the experiment with EHT 1864 + Navitoclax (first compound 1.265 µM); 0.827 with EHT 1864 + Navitoclax (first compound 4 µM); 0.335 with EHT 1864 + Tozasertib (first compound 0.04 µM); 0.332 with EHT 1864 + Tozasertib (first compound 0.1265 µM). The relative viability in the experiment with EHT 1864 + Tozasertib (first compound 0.4 µM) worked out at 0.209; in the experiment with EHT 1864 + Tozasertib (first compound 1.265 µM) it was 0.204; with EHT 1864 + Tozasertib (first compound 4 µM), 0.16; with EHT 1864 + Phenformin (first compound 0.04 µM), 0.37; with EHT 1864 + Phenformin (first compound 0.1265 µM) it was 0.232; with EHT 1864 + Phenformin (first compound 0.4 µM) it was 0.345. Moreover, the results for the relative viability with EHT 1864 + Phenformin (first compound 1.265 µM) and with EHT 1864 + Phenformin (first compound 4 µM) were 0.288 and 0.52, respectively.
